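Dose response: 5 concentrations. Exposure: 48 h. Format: 96-well plates. Endpoint: linear interpolation; highest concentration if not reached. TGI is the concentration that stops growth completely.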
Columns and labels:
Test in all cases: inhibition of tumour cell growth, NCI panel, 48 h
[1] = tested on: 786-0 renal
[2] = tested on: A498 renal
[3] = tested on: A549 NSCLC
[4] = tested on: ACHN renal
[5] = tested on: BT-549 breast
[6] = tested on: CCRF-CEM leukemia
[7] = tested on: COLO 205 colon
[8] = tested on: DLD-1 colon
[9] = tested on: DMS 114 small cell lung
[10] = tested on: DMS 273 small cell lung
[11] = tested on: DU-145 prostate
[12] = tested on: HCC-2998 colon
[13] = tested on: HCT-116 colon
[14] = tested on: HCT-15 colon
[15] = tested on: HL-60(TB) leukemia
[16] = tested on: HOP-18 NSCLC
[17] = tested on: HOP-62 NSCLC
[18] = tested on: HOP-92 NSCLC
[19] = tested on: HS 578T breast
[20] = tested on: HT29 colon
[21] = tested on: IGROV1 ovarian
[22] = tested on: K-562 leukemia
[23] = tested on: KM12 colon
[24] = tested on: LOX IMVI melanoma
[25] = tested on: LXFL 529 NSCLC
[26] = tested on: M14 melanoma
[27] = tested on: M19-MEL melanoma
[28] = tested on: MALME-3M melanoma
[29] = tested on: MCF7 breast
[30] = tested on: MDA-MB-231 breast
[31] = tested on: MDA-MB-435
[32] = tested on: MDA-N
[33] = tested on: MOLT-4 leukemia
[34] = tested on: NCI-H226 lung
[35] = tested on: NCI-H23 lung
[36] = tested on: NCI-H460 lung
[37] = tested on: NCI-H522 lung
[38] = tested on: NCI/ADR-RES ovarian
[39] = tested on: OVCAR-3 ovarian
[40] = tested on: OVCAR-4 ovarian
[41] = tested on: OVCAR-5 ovarian
[42] = tested on: OVCAR-8 ovarian
[43] = tested on: PC-3 prostate
[44] = tested on: RPMI-8226 leukemia
[45] = tested on: RXF 393 renal
[46] = tested on: SF-268 CNS
[47] = tested on: SF-295 CNS
[48] = tested on: SF-539 CNS
[49] = tested on: SK-MEL-2 melanoma
[50] = tested on: SK-MEL-28 melanoma
[51] = tested on: SK-MEL-5 melanoma
[52] = tested on: SK-OV-3 ovarian
[53] = tested on: SN12C renal
[54] = tested on: SNB-19 CNS
[55] = tested on: SNB-75 CNS
[56] = tested on: SNB-78 CNS
[57] = tested on: SW-620 colon
[58] = tested on: T-47D breast
[59] = tested on: TK-10 renal
[60] = tested on: U251 CNS
[61] = tested on: UACC-257 melanoma
[62] = tested on: UACC-62 melanoma
[63] = tested on: UO-31 renal
[64] = tested on: XF 498 CNS
[65] = tested on: CAKI-1 renal
[66] = tested on: EKVX NSCLC
[67] = tested on: KM20L2 colon
[68] = tested on: RXF-631 renal
[69] = tested on: SR leukemia

For `O=c1cc(-c2cccnc2)[nH]c2cc3c(cc12)OCO3`, the TGI [1] was over 100 µM, the TGI [2] was over 69.9 µM and the TGI [3] was over 100 µM. The TGI [4] was over 100 µM, the TGI [5] was over 100 µM and the TGI [6] was over 100 µM. It also gave a TGI [7] of over 100 µM, a TGI [8] of over 100 µM and a TGI [9] of over 100 µM. It also gave a TGI [10] of over 100 µM, a TGI [11] of over 100 µM and a TGI [12] of 19.4 µM. It also gave a TGI [13] of over 100 µM, a TGI [14] of over 64.3 µM and a TGI [15] of 31.9 µM. It also gave a TGI [16] of 84.1 µM, a TGI [17] of 58.8 µM and a TGI [18] of over 100 µM. For the same molecule, the TGI [19] was 69.6 µM, the TGI [20] was 59.3 µM and the TGI [21] was over 28.1 µM. For the same molecule, the TGI [22] was over 100 µM, the TGI [23] was over 100 µM and the TGI [24] was over 100 µM. It also gave a TGI [25] of 26.8 µM, a TGI [26] of over 100 µM and a TGI [27] of over 100 µM. For the same molecule, the TGI [28] was over 26 µM, the TGI [29] was over 100 µM and the TGI [30] was over 100 µM. It also gave a TGI [31] of 4.6 µM, a TGI [32] of 5.71 µM and a TGI [33] of over 100 µM. It also gave a TGI [34] of over 89.6 µM, a TGI [35] of over 53.5 µM and a TGI [36] of over 100 µM. For the same molecule, the TGI [37] was over 21.6 µM, the TGI [38] was 40 µM and the TGI [39] was over 20.7 µM. For the same molecule, the TGI [40] was over 100 µM, the TGI [41] was over 100 µM and the TGI [42] was over 95.3 µM. For the same molecule, the TGI [43] was over 100 µM, the TGI [44] was over 100 µM and the TGI [45] was over 96.3 µM. For the same molecule, the TGI [46] was over 100 µM, the TGI [47] was over 38.5 µM and the TGI [48] was 17.7 µM. For the same molecule, the TGI [49] was over 100 µM, the TGI [50] was over 100 µM and the TGI [51] was 23.9 µM. For the same molecule, the TGI [52] was over 67 µM, the TGI [53] was over 100 µM and the TGI [54] was 79.6 µM. The TGI [55] was 27.1 µM, the TGI [56] was over 100 µM and the TGI [57] was over 100 µM. It also gave a TGI [58] of over 100 µM, a TGI [59] of over 100 µM and a TGI [60] of 30.8 µM. It also gave a TGI [61] of over 100 µM, a TGI [62] of over 100 µM and a TGI [63] of over 100 µM. It also gave a TGI [64] of 72.7 µM.
`CCCCCCCCC/C=C1\CCC(CN(C)C)C1=O` (configuration not stated) was tested, and the TGI [1] was 0.963 µM, the TGI [2] was 6.4 µM and the TGI [3] was 18 µM. The TGI [4] was 4.98 µM, the TGI [65] was 4.99 µM and the TGI [6] was 4.82 µM. It also gave a TGI [7] of 5.37 µM, a TGI [8] of 4.28 µM and a TGI [9] of 4.87 µM. It also gave a TGI [10] of 3.25 µM, a TGI [66] of 4.81 µM and a TGI [12] of 10.5 µM. The TGI [13] was 3.67 µM, the TGI [14] was 4.66 µM and the TGI [15] was 5.31 µM. For the same molecule, the TGI [17] was 4.32 µM, the TGI [18] was 4.39 µM and the TGI [20] was 3.16 µM. For the same molecule, the TGI [21] was 6.53 µM, the TGI [22] was 7.53 µM and the TGI [23] was 3.84 µM. The TGI [67] was 4.66 µM, the TGI [24] was 2.59 µM and the TGI [25] was 2.64 µM. The TGI [26] was 3.57 µM, the TGI [27] was 3.87 µM and the TGI [28] was 12.6 µM. For the same molecule, the TGI [33] was 8.49 µM, the TGI [34] was 23.9 µM and the TGI [35] was 5.61 µM. It also gave a TGI [36] of 12.5 µM, a TGI [37] of 4.78 µM and a TGI [41] of 28 µM. It also gave a TGI [42] of 3.11 µM, a TGI [68] of 4.53 µM and a TGI [46] of 3.71 µM. It also gave a TGI [47] of 12.7 µM, a TGI [48] of 3.18 µM and a TGI [49] of 6.42 µM. It also gave a TGI [50] of 4.28 µM, a TGI [51] of 3.9 µM and a TGI [52] of 32 µM. For the same molecule, the TGI [53] was 4.34 µM, the TGI [54] was 18.1 µM and the TGI [55] was 6.28 µM. It also gave a TGI [56] of 5.03 µM, a TGI [69] of 6.77 µM and a TGI [57] of 3.08 µM. The TGI [59] was 4.53 µM, the TGI [60] was 3.02 µM and the TGI [61] was 3.52 µM. For the same molecule, the TGI [62] was 5.73 µM and the TGI [63] was 4.04 µM.
